The target in assay [1] is Human Norepinephrine Transporter (hNET) (Homo sapiens, UniProt P23975). The assay is described as follows: Human Norepinephrine Transporter (hNET) Scintillation Proximity Assay (SPA), competition with [3H]-Nisoxetine. The note with it: membranes of HEK-293 cells expressing recombinant hNET, Ki by Cheng-Prusoff; for Ki: pKi NET.
Assay [2] addresses T1, Human Serotonin Transporter (hSERT) (Homo sapiens, UniProt P31645).
T1 construct: expressed in transfected cells; membranes prepared from them
The assay is described as follows: Human Serotonin Transporter (hSERT) Scintillation Proximity Assay (SPA), competition with [3H]-Citalopram. In kind it is binding. The note with it: membranes of HEK-293 cells expressing recombinant hSERT, Ki by Cheng-Prusoff; for Ki: read-out: pKi SERT (converted). For orientation: SPA uses beads or plates that emit light when radiolabelled molecules are held near them.
Description: Screening for Human Serotonin Transporter (hSERT) Antagonists Using a Scintillation Proximity Assay (SPA)
Scintillation Proximity Assay (SPA) works by bringing radioligand within close proximity to the bead's scintillant to stimulate light emission. […] Unbound radioligand produced no signal as a result of distant proximity to scintillant (lack of energy transfer).

Sequence of Human Norepinephrine Transporter (hNET) (P23975 whole entry): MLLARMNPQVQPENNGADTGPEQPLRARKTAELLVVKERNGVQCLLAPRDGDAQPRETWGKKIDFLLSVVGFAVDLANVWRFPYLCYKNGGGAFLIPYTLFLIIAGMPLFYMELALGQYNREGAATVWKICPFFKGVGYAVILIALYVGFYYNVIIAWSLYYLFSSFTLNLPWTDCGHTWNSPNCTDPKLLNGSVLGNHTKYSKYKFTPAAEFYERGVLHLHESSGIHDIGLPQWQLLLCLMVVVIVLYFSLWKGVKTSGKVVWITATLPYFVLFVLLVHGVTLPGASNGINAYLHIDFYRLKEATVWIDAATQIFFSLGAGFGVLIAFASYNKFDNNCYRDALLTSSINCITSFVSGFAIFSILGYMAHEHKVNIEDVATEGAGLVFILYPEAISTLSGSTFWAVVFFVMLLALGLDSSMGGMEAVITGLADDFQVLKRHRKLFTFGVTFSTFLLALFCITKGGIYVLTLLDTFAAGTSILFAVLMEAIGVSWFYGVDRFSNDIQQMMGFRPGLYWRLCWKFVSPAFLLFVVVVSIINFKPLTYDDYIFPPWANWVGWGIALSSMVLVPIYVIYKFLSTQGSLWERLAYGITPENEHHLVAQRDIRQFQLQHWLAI
T1 sequence (P31645 whole entry): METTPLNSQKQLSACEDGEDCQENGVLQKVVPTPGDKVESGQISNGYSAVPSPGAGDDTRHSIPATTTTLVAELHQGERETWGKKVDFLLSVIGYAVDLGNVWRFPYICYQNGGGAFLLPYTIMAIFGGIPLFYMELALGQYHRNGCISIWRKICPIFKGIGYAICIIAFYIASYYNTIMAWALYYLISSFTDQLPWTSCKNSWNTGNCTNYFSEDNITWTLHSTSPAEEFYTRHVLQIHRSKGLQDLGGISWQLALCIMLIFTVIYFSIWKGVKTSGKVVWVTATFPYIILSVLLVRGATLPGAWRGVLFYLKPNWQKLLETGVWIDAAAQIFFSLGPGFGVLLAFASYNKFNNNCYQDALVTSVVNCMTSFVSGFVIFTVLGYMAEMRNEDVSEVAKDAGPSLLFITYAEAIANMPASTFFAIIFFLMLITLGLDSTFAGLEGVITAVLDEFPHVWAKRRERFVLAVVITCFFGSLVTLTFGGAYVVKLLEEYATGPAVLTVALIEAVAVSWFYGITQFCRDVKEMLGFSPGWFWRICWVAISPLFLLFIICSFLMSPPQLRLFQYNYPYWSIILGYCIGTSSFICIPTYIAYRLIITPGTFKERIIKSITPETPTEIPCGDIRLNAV

Regarding `CNCCC(c1ccccc1)c1ccc2[nH]cc(C(N)=O)c2c1` (stereo not shown) [Compound 91, 5-(3-Methylamino-1-phenyl-propyl)-1H-indole-3-carboxylic acid amide], the Ki in assay [1] is 603 nM; in assay [2], 33.9 nM.

As to “[3,3-Bis-(7-fluoro-1H-indol-5-yl)-propyl]-methyl-amine [Compound 118]”, in assay [1], the “pKi NET” value stood at 8.87. Moreover, in assay [2], the “pKi SERT” value was 7.43.

As to `CNCCC(c1ccc2c(c1)OCCN2C)c1ccc2[nH]ccc2c1` (stereo not shown) [Compound 114, [3-(1H-Indol-5-yl)-3-(4-methyl-3,4-dihydro-2H-benzo[1,4]oxazin-7-yl)-propyl]-methyl-amine], the Ki in assay [1] was 87.1 nM; in assay [2], 77.6 nM.

As to “[3-(3,4-Dichloro-phenyl)-3-(1H-indol-5-yl)-propyl]-methyl-amine [Compound 107]”, the “pKi NET” value in assay [1] was determined as 7.83. Moreover, the “pKi SERT” value in assay [2] was 8.17.

Consider `CNCCC(c1ccc2[nH]ccc2c1)c1ccc2cc[nH]c2c1` (stereo not shown) [Compound 117, [3-(1H-Indol-6-yl)-3-(1H-indol-5-yl)-propyl]-methyl-amine], for which the Ki in assay [1] is 5.89 nM; in assay [2] it was 8.91 nM.

For `NCCC(c1ccc2ncccc2c1)c1ccc2[nH]ccc2c1` (stereo not shown) [Compound 120, 3-(1H-Indol-5-yl)-3-quinolin-6-yl-propylamine], the Ki was 141 nM in assay [1] and 3.24 nM in assay [2].

As for “[3-(7-Methoxy-1H-indol-5-yl)-3-phenyl-propyl]-methyl-amine [Compound 22]”, the “pKi NET” value in assay [1] is 8.39. Besides, in assay [2], the “pKi SERT” value came out at 7.66.

On to “[3,3-Bis-(1H-indol-5-yl)-propyl]-methyl-amine [Compound 111]”, for which the “pKi NET” value in assay [1] stood at 9.12. The “pKi SERT” value in assay [2] worked out at 7.92.

Take “[3-(7-Fluoro-1H-indol-5-yl)-3-(4-methoxy-phenyl)-propyl]-methyl-amine [Compound 98]”: the “pKi NET” value in assay [1] stood at 8.3. Besides, the “pKi SERT” value in assay [2] is 7.88.

Consider `CNCCC(c1cccc(F)c1)c1cc(Cl)c2[nH]ccc2c1` (stereo not shown) [Compound 108], for which the Ki in assay [1] is 2.88 nM; in assay [2], 12.9 nM.

As for `CNCCC(c1ccccc1)c1ccc2[nH]ccc2c1` (stereo not shown) [Compound 42, [3-(1H-Indol-5-yl)-3-phenyl-propyl]-methyl-amine], the “pKi NET” value in assay [1] is given as 8.0. In addition, in assay [2], the Ki was 32.4 nM.

`CNCCC(c1ccccc1)c1ccc2occc2c1` (stereo not shown) [Compound 141, (3-Benzofuran-5-yl-3-phenyl-propyl)-methyl-amine]: the Ki was 10.7 nM in assay [1] and 22.4 nM in assay [2].

As to `CNCCC(c1ccccc1)c1ccc2[nH]cc(C)c2c1` (stereo not shown) [Compound 15, Methyl-[3-(3-methyl-1H-indol-5-yl)-3-phenyl-propyl]-amine], the Ki in assay [1] is 40.7 nM; in assay [2] it was 5.25 nM.

Regarding “[3-(7-Fluoro-1H-indol-5-yl)-3-naphthalen-2-yl-propyl]-methyl-amine [Compound 106]”, in assay [1], the “pKi NET” value was found to be 7.68. Further, the “pKi SERT” value in assay [2] is given as 8.28.

Take `CNCC[C@@H](c1ccccc1)c1ccc2[nH]nc(Cl)c2c1` [Compound 60, [(S)-3-(3-Chloro-1H-indazol-5-yl)-3-phenyl-propyl]-methyl-amine]: the values for the Ki in assay [1] and in assay [2] were 40.7 nM and 8.51 nM, respectively.

Regarding “5-(3-Methylamino-1-phenyl-propyl)-1H-indole-3-carbonitrile [Compound 10]”, in assay [1], the “pKi NET” value is reported as 7.03. Moreover, the “pKi SERT” value in assay [2] is on record as 9.42.

As for “7-Fluoro-5-(3-methylamino-1-(S)-phenyl-propyl)-1H-indole-3-carbonitrile [Compound 104]”, the “pKi NET” value in assay [1] is recorded as 7.49. Also, the “pKi SERT” value in assay [2] is 8.1.

As for `NCCC(c1ccc2[nH]ccc2c1)c1ccc2[nH]ccc2c1` [Compound 119, 3,3-Bis-(1H-indol-5-yl)-propylamine], the figures for the Ki in assay [1] and in assay [2] were 11.5 nM and 72.4 nM, respectively.

Take `CNCCC(c1ccc2[nH]ccc2c1)c1cccc2ccccc12` (stereo not shown) [Compound 115, [3-(1H-Indol-5-yl)-3-naphthalen-1-yl-propyl]-methyl-amine]: the Ki is 43.7 nM in assay [1] and 8.13 nM in assay [2].

With “5-(3-Methylamino-1-phenyl-propyl)-1H-indole-3-carboxylic acid methylamide [Compound 129]”, the “pKi NET” value in assay [1] turned out to be 7.72. In addition, the “pKi SERT” value in assay [2] worked out at 7.18.

As for `CNCCC(c1ccccc1)c1ccc2[nH]nc(OCC3CC3)c2c1` (stereo not shown) [Compound 81, [3-(3-Cyclopropylmethoxy-1H-indazol-5-yl)-3-phenyl-propyl]-methyl-amine], the Ki in assay [1] was 214 nM; in assay [2], 56.2 nM.

In the case of “5-(3-Amino-1-phenyl-propyl)-1H-indole-3-carbonitrile [Compound 70]”, the “pKi NET” value in assay [1] worked out at 6.39. The “pKi SERT” value in assay [2] was 8.74.

`CNCC[C@H](c1ccccc1)c1cc(F)c2[nH]cc(C#N)c2c1` [Compound 99, 7-Fluoro-5-(3-methylamino-1-(R)-phenyl-propyl)-1H-indole-3-carbonitrile]: the values for the Ki in assay [1] and in assay [2] were 145 nM and 0.661 nM, respectively.

For the compound “[3-(5-Methoxy-1H-indol-6-yl)-3-phenyl-propyl]-methyl-amine [Compound 86]”, in assay [1], the “pKi NET” value is on record as 7.63. In addition, in assay [2], the “pKi SERT” value was found to be 8.01.

`CNCCC(c1ccccc1)c1cc(OC)c2[nH]ncc2c1` (stereo not shown) [Compound 75, [3-(7-Methoxy-1H-indazol-5-yl)-3-phenyl-propyl]-methyl-amine]: the Ki in assay [1] is 6.61 nM; in assay [2] it was 5.62 nM.

For the compound `CNCCC(c1ccccc1)c1ccc2[nH]cc(C(=O)N(C)C)c2c1` (stereo not shown) [Compound 92, 5-(3-Methylamino-1-phenyl-propyl)-1H-indole-3-carboxylic acid dimethylamide], the Ki was 316 nM in assay [1] and 35.5 nM in assay [2].

On to `CNCCC(c1ccc2[nH]ccc2c1)c1nc2ccccc2s1` (stereo not shown) [Compound 140, [3-Benzothiazol-2-yl-3-(1H-indol-5-yl)-propyl]-methyl-amine], for which the Ki was 9.33 nM in assay [1] and 11.2 nM in assay [2].

Turning to “[3-(3-Chloro-1H-indazol-5-yl)-3-phenyl-propyl]-methyl-amine [Compound 57]”, in assay [1], the “pKi NET” value is reported as 7.06. Also, the “pKi SERT” value in assay [2] is 8.14.

As for `CNCCC(c1ccc2[nH]ccc2c1)c1ccc2sccc2c1` (stereo not shown) [Compound 116, [3-Benzo[b]thiophen-5-yl-3-(1H-indol-5-yl)-propyl]-methyl-amine], the Ki in assay [1] was 5.01 nM; in assay [2], 1.74 nM.

`CNCC[C@H](c1ccccc1)c1cc(OC)c2[nH]ncc2c1` [Compound 83, [3-(7-Methoxy-1H-indazol-5-yl)-3-(R)-phenyl-propyl]-methyl-amine]: the values for the Ki in assay [1] and in assay [2] were 53.7 nM and 11.5 nM, respectively.

Take `CNCCC(c1ccccc1)c1ccc2[nH]nc(OC(C)C)c2c1` (stereo not shown) [Compound 80, [3-(3-Isopropoxy-1H-indazol-5-yl)-3-phenyl-propyl]-methyl-amine]: the figures for the Ki in assay [1] and in assay [2] were 148 nM and 33.1 nM, respectively.

For the compound “5-[1-(1H-Indol-5-yl)-3-methylamino-propyl]-1H-indole-3-carbonitrile [Compound 122]”, in assay [1], the “pKi NET” value is listed as 7.7. Further, the “pKi SERT” value in assay [2] is on record as 9.24.

On to `CNCCC(c1ccccc1)c1ccc2occc2c1` (stereo not shown) [Compound 142, (3-Benzofuran-5-yl-3-phenyl-propyl)-methyl-amine], for which the Ki is 10.5 nM in assay [1] and 10.7 nM in assay [2].

As to “[3-(3,4-Dichloro-phenyl)-3-(7-fluoro-1H-indol-5-yl)-propyl]-methyl-amine [Compound 109]”, the “pKi NET” value in assay [1] is reported as 7.56. In assay [2], the “pKi SERT” value was 7.9.

In the case of “[3-(7-Fluoro-1H-indol-5-yl)-3-(3-fluoro-phenyl)-propyl]-methyl-amine [Compound 93]”, the “pKi NET” value in assay [1] turned out to be 8.41. Moreover, the “pKi SERT” value in assay [2] is listed as 7.76.

These data come from patent EP2351737A1, “3-Amino-1-arylpropyl indoles and aza-substituted indoles” (F. Hoffmann-La Roche AG, priority 2005, dated 2007).
